Reference: US7071166B2, “Skin wound healing promoters” (Santen Pharmacetical Co., Ltd., priority 2000, dated 2006)
Where a SMILES comes first, the peptide text is derived from it.

Assays:
[1] = test system: ear tissue pieces (epidermal cell layer); experiment: Action on epidermal extension (cultured rat ear tissue pieces); type: cell-based, rats (Spraque-Dawley); details: for Extension length of epidermis: TCM 199 medium, cultured 24 hours, substance P or FGLM 20 μM, IGF-I 10 ng/ml, average of 12 samples; for Epidermal extension compared with control (in words): each drug used solely
Description: Excessive pentobarbital was administered to rats (Spraque-Dawley), and then ear tissue pieces of about 2×4 mm were prepared. Into a 60 mm Petri dish was put 18 ml of each TCM 199 culture medium containing each of test drugs in Table 1 [substance P, FGLM (SEQ ID NO: 2), IGF-I, substance P+IGF-I and FGLM (SEQ ID NO: 2)+IGF-I], and […] were added to each Petri dish (12 samples: three sections per group). The tissue pieces were cultured in a CO2 incubator (37° C.·5% CO2) for 24 hours, the tissue pieces were fixed with ethanol-acetic acid (volume ratio 95:5) to prepare three tissue sections per tissue piece according to the conventional method. The tissue sections were stained with hematoxylin-eosin, and then length of a epidermal cell layer having extended cut surfaces was measured. The tissue pieces were cultured under the same condition as mentioned above using a culture medium containing no test drug to prepare controls. The values in the table are the average of 12 samples.

[2] = test system: full-thickness wounds on back skin of non-diabetes rats (non DM Rat); experiment: Action on skin wound healing, non-diabetes rats; type: in vivo, rats (Wistar); details: ointment once a day, substance P 2.5 mg/ml, IGF-I 1 μg/ml, average of five
Description: (§1) Streptozotocin (70 mg/kg BW) dissolved in a citric acid buffer was injected intravenously into tails of rats (Wistar) under diethyl ether inhalation anesthesia to prepare diabetes rats (DM Rat) (five rats per group). An equal amount of the citric acid buffer alone was injected intravenously into rats (Wistar) to prepare non-diabetes rats (non DM Rat) (five rats per group). Four weeks after the intravenous injection, the back of all the rats was shaved with hair clippers under diethyl ether inhalation anesthesia, and hair was removed with cream for depilation. After 24 hours, five full-thickness (i.e. epidermis and dermis) wounds were made on back skin in equal intervals with a trepan for skin biopsy having a diameter of 5 mm. Confirming hemostasis, each ointment in Tables 2 and 3 was applied on the wound once a day. Just before applying the ointment once a day, the back wounds were photographed, and their areas were measured. […] The values in these tables are the average of five samples.

[3] = test system: full-thickness wounds on back skin of diabetes rats (DM Rat); experiment: Action on skin wound healing, streptozotocin diabetes rats; type: in vivo, rats (Wistar); details: ointment once a day, substance P 2.5 mg/ml, IGF-I 1 μg/ml, average of five
Description: as §1

| Compound | Extension length of epidermis [1] [μm] | Epidermal extension compared with control (in words) [1] | Skin wound area of non-diabetes rat ([2]; 1st day) [%] | Skin wound area of non-diabetes rat ([2]; After 2 days) [%] | Skin wound area of non-diabetes rat ([2]; After 4 days) [%] | Skin wound area of non-diabetes rat ([2]; After 6 days) [%] | Skin wound area of diabetes rat ([3]; 1st day) [%] | Skin wound area of diabetes rat ([3]; After 1 day) [%] | Skin wound area of diabetes rat ([3]; After 4 days) [%] | Skin wound area of diabetes rat ([3]; After 7 days) [%] | Skin wound area of diabetes rat ([3]; After 10 days) [%] |
| --- | --- | --- | --- | --- | --- | --- | --- | --- | --- | --- | --- |
| CSCC[C@H](NC(=O)[C@H](CC(C)C)NC(=O)CNC(=O)[C@@H](N)Cc1ccccc1)C(N)=O [FGLM, Phe-Gly-Leu-Met-NH2] (H-FGLM-NH2) | 55.37 | almost as long as that in the case where the control is used |  |  |  |  |  |  |  |  |  |
| IGF-I: insulin-like growth factor-I | 50.68 | almost as long as that in the case where the control is used | 100 | 81 | 66 | 43 | 100 | 89 | 64 | 52 | 27 |
| CSCC[C@H](NC(=O)[C@H](CC(C)C)NC(=O)CNC(=O)[C@H](Cc1ccccc1)NC(=O)[C@H](Cc1ccccc1)NC(=O)[C@H](CCC(N)=O)NC(=O)[C@H](CCC(N)=O)NC(=O)[C@@H]1CCCN1C(=O)[C@H](CCCCN)NC(=O)[C@@H]1CCCN1C(=O)[C@@H](N)CCCNC(=N)N)C(N)=O [Substance P, Arg-Pro-Lys-Pro-Gln-Gln-Phe-Phe-Gly-Leu-Met-NH2] | 72.57 | almost as long as that in the case where the control is used | 100 | 88 | 74 | 59 | 100 | 90 | 77 | 68 | 44 |
